Test results published in ChEMBL document CHEMBL5050844 (2019).
pIC50, pKd: −log10 of the molar value.

Tests used:
[1] = Induction of anti-CD3 antibodies-stimulated human CD4+ T cell activation in immunocompetent mouse assessed fold increase in CD25 expression at 135 mg/kg, po administered twice a day; type: functional; also: reference of the scale not given here
[2] = Induction of anti-CD3 antibodies-stimulated human CD4+ T cell activation in immunocompetent mouse assessed fold increase in CD25 expression at 90 mg/kg, po administered twice a day; type: functional; also: reference of the scale not given here
[3] = Induction of allogenic human T cell activation at 10 uM assessed fold increase in cell proliferation; type: functional, T cell line
[4] = Induction of anti-CD3/CD28 antibodies-stimulated human T cell activation at 10 uM assessed fold increase in IFN-gamma secretion measured by ELISA assay; type: functional, T cell line
[5] = Induction of anti-CD3 antibodies-stimulated human CD8+ T cell activation in immunocompetent mouse assessed fold increase in CD25 expression at 135 mg/kg, po administered twice a day; type: functional; also: reference of the scale not given here
[6] = Induction of anti-CD3 antibodies-stimulated human CD8+ T cell activation in immunocompetent mouse assessed fold increase in CD25 expression at 180 mg/kg, po administered twice a day; type: functional; also: reference of the scale not given here
[7] = Induction of anti-CD3 antibodies-stimulated human CD4+ T cell activation at 1.11 uM assessed fold increase in CD69 expression measured by flow cytometry analysis; type: functional, T cell line; also: reference of the scale not given here
[8] = Induction of anti-CD3 antibodies-stimulated human CD8+ T cell activation in immunocompetent mouse assessed fold increase in CD25 expression at 90 mg/kg, ip administered thrice a day; type: functional; also: reference of the scale not given here
[9] = Induction of anti-CD3/CD28 antibodies-stimulated human T cell activation at 0.3 uM assessed fold increase in IL-2 secretion measured by ELISA assay; type: functional, T cell line
[10] = Induction of anti-CD3/CD28 antibodies-stimulated human T cell activation at 10 uM assessed fold increase in TNF-alpha secretion measured by ELISA assay; type: functional, T cell line
[11] = Induction of anti-CD3/CD28 antibodies-stimulated human T cell activation at 0.3 uM assessed fold increase in CD25 expression measured by ELISA assay; type: functional, T cell line
[12] = Induction of anti-CD3 antibodies-stimulated human T cell activation at 1 uM assessed fold increase in CD25 expression measured by ELISA assay; type: functional, T cell line; also: reference of the scale not given here
[13] = Induction of anti-CD3/CD28 antibodies-stimulated human CD8+ T cell activation at 10 uM assessed fold increase in cell proliferation measured by flow cytometry analysis; type: functional, T cell line
[14] = Induction of anti-CD3/CD28 antibodies-stimulated human CD4+ T cell activation at 1.11 uM assessed fold increase in cell proliferation measured by flow cytometry analysis; type: functional, T cell line
[15] = Induction of anti-CD3 antibodies-stimulated human T cell activation at 10 uM assessed fold increase in IFN-gamma secretion measured by ELISA assay; type: functional, T cell line; also: reference of the scale not given here
[16] = Induction of anti-CD3 antibodies-stimulated human CD8+ T cell activation in immunocompetent mouse assessed fold increase in CD25 expression at 90 mg/kg, po administered twice a day; type: functional; also: reference of the scale not given here
[17] = Induction of anti-CD3 antibodies-stimulated human T cell activation at 8 uM assessed fold increase in CD25 expression measured by ELISA assay; type: functional, T cell line; also: reference of the scale not given here
[18] = Induction of anti-CD3 antibodies-stimulated human T cell activation at 8 uM assessed fold increase in IL-2 secretion measured by ELISA assay; type: functional, T cell line; also: reference of the scale not given here
[19] = biological target: T1, E3 ubiquitin-protein ligase CBL-B (Homo sapiens, UniProt Q13191); assay: Inhibition of N-terminal Avi-tagged human CBL-B (36 to 427 residues) incubated with 60 nM Src kinase for 1.5 hrs followed by incubation with fluorescently labeled UbcH5B-Ub for 1 hr and measured by TR-FRET assay; type: single protein
T1 sequence (Q13191 whole entry, the tested form may be a part): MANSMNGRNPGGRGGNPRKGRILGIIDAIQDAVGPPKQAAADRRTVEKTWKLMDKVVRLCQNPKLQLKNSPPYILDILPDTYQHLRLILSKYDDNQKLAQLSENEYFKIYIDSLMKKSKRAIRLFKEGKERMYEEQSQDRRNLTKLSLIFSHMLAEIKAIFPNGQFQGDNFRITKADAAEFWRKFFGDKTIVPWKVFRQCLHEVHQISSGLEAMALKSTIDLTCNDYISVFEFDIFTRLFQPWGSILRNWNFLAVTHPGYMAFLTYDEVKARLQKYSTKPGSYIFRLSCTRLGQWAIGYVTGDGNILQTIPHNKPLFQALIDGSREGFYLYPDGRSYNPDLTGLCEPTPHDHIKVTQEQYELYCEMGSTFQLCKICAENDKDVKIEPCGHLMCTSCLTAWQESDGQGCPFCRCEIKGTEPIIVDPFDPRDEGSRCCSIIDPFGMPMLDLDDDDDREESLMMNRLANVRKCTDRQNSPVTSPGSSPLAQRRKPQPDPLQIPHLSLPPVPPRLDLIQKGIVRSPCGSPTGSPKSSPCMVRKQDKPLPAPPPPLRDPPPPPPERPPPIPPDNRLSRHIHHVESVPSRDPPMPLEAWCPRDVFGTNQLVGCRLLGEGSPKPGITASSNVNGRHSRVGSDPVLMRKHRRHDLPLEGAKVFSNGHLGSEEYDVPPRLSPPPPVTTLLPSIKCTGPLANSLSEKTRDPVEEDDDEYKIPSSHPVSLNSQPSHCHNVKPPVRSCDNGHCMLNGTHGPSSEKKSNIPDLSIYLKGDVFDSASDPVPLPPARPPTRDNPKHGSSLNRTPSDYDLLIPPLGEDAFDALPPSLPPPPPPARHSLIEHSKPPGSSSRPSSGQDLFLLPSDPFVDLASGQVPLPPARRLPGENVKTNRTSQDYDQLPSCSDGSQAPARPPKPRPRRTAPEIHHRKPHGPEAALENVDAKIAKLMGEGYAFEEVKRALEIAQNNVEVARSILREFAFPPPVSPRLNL

[20] = Induction of anti-CD3/CD28 antibodies-stimulated human T cell activation at 1 uM assessed fold increase in CD25 expression measured by ELISA assay; type: functional, T cell line
[21] = Induction of anti-CD3/CD28 antibodies-stimulated human anergic T cell activation at 1.11 uM assessed fold increase in IFN-gamma secretion measured by ELISA assay; type: functional, T cell line
[22] = Induction of anti-CD3 antibodies-stimulated human CD4+ T cell activation in immunocompetent mouse assessed fold increase in CD25 expression at 180 mg/kg, po administered twice a day; type: functional; also: reference of the scale not given here
[23] = Induction of anti-CD3 antibodies-stimulated human exhausted CD8+ T cell activation assessed fold increase in CTLA4 expression measured by flow cytometry analysis; type: functional, T cell line; also: reference of the scale not given here
[24] = biological target: T1, E3 ubiquitin-protein ligase CBL-B; assay: Binding affinity towards N-terminal biotinylated Avi-tagged human CBL-B (36 to 427 residues) measured by surface plasmon resonance assay

Structure (SMILES)	fold change (FC) [1]	fold change (FC) [2]	fold change (FC) [3]	fold change (FC) [4]	fold change (FC) [5]	fold change (FC) [6]	fold change (FC) [7]	fold change (FC) [9]	fold change (FC) [10]	fold change (FC) [11]	fold change (FC) [12]	fold change (FC) [13]	fold change (FC) [14]	fold change (FC) [15]	fold change (FC) [17]	fold change (FC) [18]	pIC50 [19]	fold change (FC) [20]	fold change (FC) [21]	fold change (FC) [23]	also measured
C[C@@H](c1cc2c(c(C(F)(F)F)c1)CN(c1cccc(C3(Cc4nncn4C)COC3)c1)C2=O)N1CC[C@H](F)C1	1.51	1	>3	>4	2.01	1	>1.601	>=7.5	>4	1.31	>=1.001	>4	>4	>4	>=1.001	>=0.201	> 7.00	1.51	>4.01	<=1.4	fold change (FC) [8]: 1; fold change (FC) [16]: 1.51; fold change (FC) [22]: 2.01
Cn1cnnc1[C@@H]1C[C@@H]1c1cccc(N2Cc3c(cccc3C(F)(F)F)C2=O)c1	1.51	1	<=2	2.01	1	1	<=1.2	<=1	2.01	>=1.76	0.601	2.01	<=2	2.01	>=1.001	<=0.05		>=1.76	<=2.5	<=1.4	fold change (FC) [8]: 1; fold change (FC) [16]: 1; fold change (FC) [22]: 2.01
Cn1cnnc1CC1(c2cccc(N3Cc4c(cc(CN5CC(F)C5)cc4C(F)(F)F)C3=O)c2)COC1	1	1	>3	>4	<1	<1	>1.601	5	2.01	1.31	>=1.001	>4	>4	>4	>=1.001	>=0.201	> 7.00	1.31	2.51	>1.61	fold change (FC) [8]: 1; fold change (FC) [16]: 1; fold change (FC) [22]: 1
C[C@H](Cc1nncn1C)c1cccc(N2Cc3c(cc(CN4CC[C@](C)(O)C4)cc3C(F)(F)F)C2=O)c1			2.01	>4			>1.601	2.51	2.01	1.01	>=1.001	>4	>4	<=2	>=1.001	>=0.201	> 7.00	1.31	>4.01	>1.61	pKd [24]: > 7.00
COC1CN(Cc2cc3c(c(C(F)(F)F)c2)CN(c2cccc([C@@](C)(F)C(F)(F)c4nncn4C)c2)C3=O)C1			<=2	2.01			1.401	2.51	2.01	1.01	>=1.001	>4	>4	3.01	>=1.001	>=0.201	> 7.00	1.31	2.51	>1.61	pKd [24]: > 7.00
Cn1cnnc1CC1(c2cccc(NC(=O)c3nc4c(C(F)(F)F)cccc4[nH]3)c2)COC1			<=2	2.01			>1.601	2.51	2.01	1.31	0.801	3.01	>4	2.01	>=1.001	>=0.201	> 7.00	1.51	2.51	>1.61	pKd [24]: > 7.00
C[C@H](c1cc2c(c(C(F)(F)F)c1)CN(c1cccc(C3(Cc4nncn4C)COC3)c1)C2=O)N1CC[C@H](F)C1	1	1	>3	3.01	1	1	1.401	5	2.01	1.31	>=1.001	>4	>4	>4	>=1.001	>=0.201	> 7.00	1.51	>4.01	>1.61	fold change (FC) [8]: 1; fold change (FC) [16]: 1; fold change (FC) [22]: 1
C[C@H](Cc1nncn1C)c1cccc(N2Cc3c(cc(CN4CC(O)C4)cc3C(F)(F)F)C2=O)c1			2.01	>4			1.201	2.51	1.51	1.01	>=1.001	2.01	<=2	<=2	>=1.001	>=0.201	> 7.00	1.31	2.51	>1.61	pKd [24]: > 7.00
